Publication PMC9296036, “A peptide interfering with the dimerization of oncogenic KITENIN protein and its stability suppresses colorectal tumour progression” (Clinical and Translational Medicine, 2022)
Ends that are not written are not given here.

Target: T1, KITENIN homodimer (Homo sapiens, UniProt Q8TAA9)
T1 construct: Lysates of 293T cells expressing full‐length KITENIN‐myc; expressed in transfected cells; host or cells: Caco2
T1 sequence (Q8TAA9 1-524): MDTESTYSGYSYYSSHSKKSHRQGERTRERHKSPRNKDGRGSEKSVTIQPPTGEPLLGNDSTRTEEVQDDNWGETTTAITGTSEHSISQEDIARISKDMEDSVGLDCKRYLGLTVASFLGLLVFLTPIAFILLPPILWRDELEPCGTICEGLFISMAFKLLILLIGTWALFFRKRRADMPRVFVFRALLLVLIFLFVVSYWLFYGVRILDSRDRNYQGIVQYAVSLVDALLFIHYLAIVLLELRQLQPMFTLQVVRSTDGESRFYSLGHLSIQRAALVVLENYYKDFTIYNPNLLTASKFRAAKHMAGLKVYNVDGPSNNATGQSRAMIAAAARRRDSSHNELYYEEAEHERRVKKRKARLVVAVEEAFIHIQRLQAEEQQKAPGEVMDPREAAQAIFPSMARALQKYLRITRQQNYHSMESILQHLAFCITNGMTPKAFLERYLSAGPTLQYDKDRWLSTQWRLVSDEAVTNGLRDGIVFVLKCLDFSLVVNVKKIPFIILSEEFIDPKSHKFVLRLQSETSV
Experiment: In vitro pull-down of purified KITENIN-GST and KITENIN-His
Assay type: biochemical
Conditions: KDIP 5 μM, 4°C, 2 h, GST pull-down
Procedure: GST‐KITENIN or its derivatives were immobilized on glutathione‐sepharose beads. Myc‐tagged KITENIN was incubated with GST‐tagged KITENIN or its derivative proteins immobilized on glutathione‐sepharose as indicated. The bound protein complexes were eluted and analysed by SDS–PAGE followed by IB. To detect in vitro KITENIN homodimerization, […] GST‐KITENIN was incubated with Ni‐NTA‐purified KITENIN‐His and KDIP (5 μM) in the pull‐down buffer (50‐mM Tris.Cl [pH 7.5], 1‐mM dithiothreitol [DTT] 4% [v/v] glycerol, .1 mg/ml of BSA, 5‐mM MgCl2, 1‐mM ATP and 50‐mM NaCl) at 4°C for 2 h. […]
FIGURE 2 KAI1 C‐terminal interacting tetraspanin (KITENIN) dimerization‐interfering peptide (KDIP) suppresses KITENIN‐induced enhanced cell invasion through the inhibition of the homodimerization of KITENIN. […] After 48 h of treatment, KITENIN transcripts in cells were analysed by the 2^−ΔΔ ^CT method using Q‐PCR. […] Caco2 cells were co‐transfected with KITENIN‐V5/Myc and treated with or without KDIP or scrambled peptide (scr) and were immunoprecipitated with anti‐V5 antibody and detected by indicated antibodies. Numerals indicated a quantification of the MYC bands normalized to the corresponding V5 bands (left panel). […] The histogram represents invading cells, which were counted at four chosen areas and shown by bar graphs (mean ± SEM, n = 4, ^** p < .01). […]

Sequence: YARVRRRGPRRWRLVSDEAV [KDIP]
- dimerization of purified KITENIN proteins in vitro (in words): directly reduced
